The values that follow come from ChEMBL document CHEMBL1142628, “Antineoplastic agents 430. Isolation and structure of cribrostatins 3, 4, and 5 from the republic of maldives cribrochalina species” (2000).

Active and inactive are the calls of the source. The rule behind the calls is not given here.

Test [1] deals with Cryptococcus neoformans. Description: Antifungal activity against Cryptococcus neoformans ATCC 90112 by disk diffusion method. The format is functional. A general note: A growth-free zone around the sample is the usual read-out of agar diffusion tests.
Test [2] deals with Micrococcus luteus. Kind of test: Antibacterial activity against Micrococcus luteus Presque Isle 456 by disk diffusion method. The format is functional.
Test [3] has as its system Staphylococcus aureus. Description: Antibacterial activity against Staphylococcus aureus ATCC 29213 by disk diffusion method. The format is functional.
In test [4] the test system is Enterococcus faecalis. Description: Antibacterial activity against Enterococcus faecalis ATCC 29212 at 100 ug/disk by disk diffusion method. The test is classed as functional, organism-based.
Test [5] deals with Bacillus subtilis. Kind of test: Antibacterial activity against Bacillus subtilis Presque Isle 620 by disk diffusion method. The format is functional.
The subject of test [6] is Streptococcus pneumoniae. Kind of test: Antibacterial activity against Streptococcus pneumoniae ATCC 6303 by disk diffusion method. The test is classed as functional.
The test system of test [7] is Streptococcus pneumoniae. Description: Antibacterial activity against penicillin-resistant Streptococcus pneumoniae isolate by disk diffusion method. The test is classed as functional.
In test [8] the test system is Streptococcus pneumoniae. Description: Antibacterial activity against invasive Streptococcus pneumoniae isolate by disk diffusion method. The format is functional.
The test system of test [9] is Streptococcus sp. 'group A'. Kind of test: Antibacterial activity against group A Streptococcus isolate at 100 ug/disk by disk diffusion method. The format is functional, organism-based.
For test [10], the system named is Stenotrophomonas maltophilia. Kind of test: Antibacterial activity against Stenotrophomonas maltophilia ATCC 13637 at 100 ug/disk by disk diffusion method. The format is functional, organism-based.
In test [11] the test system is Escherichia coli. Kind of test: Antibacterial activity against Escherichia coli ATCC 25922 at 100 ug/disk by disk diffusion method. The format is functional, organism-based.
Test [12] deals with Enterobacter cloacae. Kind of test: Antibacterial activity against Enterobacter cloacae ATCC 13047 at 100 ug/disk by disk diffusion method. The format is functional, organism-based.
Test [13] has as its system Neisseria gonorrhoeae. Kind of test: Antibacterial activity against Neisseria gonorrhoeae ATCC 49226 by disk diffusion method. The test is classed as functional.
The subject of test [14] is Candida albicans. Description: Antifungal activity against Candida albicans ATCC 90028 by disk diffusion method. The test is classed as functional.
Test [15] has as its system Candida albicans. Description: Antifungal activity against Candida albicans ATCC 90028 at 100 ug/disk by disk diffusion method. The test is classed as functional, organism-based.
Test [16] concerns Cryptococcus neoformans. Kind of test: Antifungal activity against Cryptococcus neoformans ATCC 90112 at 100 ug/disk by disk diffusion method. The test is classed as functional, organism-based.
The test system of test [17] is Micrococcus luteus. Description: Antibacterial activity against Micrococcus luteus Presque Isle 456 at 100 ug/disk by disk diffusion method. The test is classed as functional, organism-based.
The test system of test [18] is Staphylococcus aureus. Description: Antibacterial activity against Staphylococcus aureus ATCC 29213 at 100 ug/disk by disk diffusion method. The format is functional, organism-based.
For test [19], the system named is Bacillus subtilis. Kind of test: Antibacterial activity against Bacillus subtilis Presque Isle 620 at 100 ug/disk by disk diffusion method. The format is functional, organism-based.
Test [20] deals with Streptococcus pneumoniae. Kind of test: Antibacterial activity against Streptococcus pneumoniae ATCC 6303 at 100 ug/disk by disk diffusion method. The test is classed as functional, organism-based.

On to `CCOC1=C(C)C(=O)c2cc(=O)n(C)cc2C1=O` [CRIBROSTATIN 2], for which the MIC was found to be 12.5 µg/disc in [1]; 50 µg/disc in [2]; 12.5 µg/disc in test [3]; 25 µg/disc in test [5]; 12.5 µg/disc in test [6]; 25 µg/disc in test [7]. In addition, the MIC in test [8] was found to be 50 µg/disc; in [13], 0.39 µg/disc; in [14], 3.12 µg/disc. The result in test [4], in [9], in test [10], in [11] and in [12] was inactive.

Regarding `CC1=C(N)C(=O)c2c(ccnc2C)C1=O` [CRIBROSTATIN 1], the result in [15], in [16], in test [17], in [18], in test [4] and in test [19] was inactive. The outcome in test [20], in test [10], in [11] and in [12] was inactive. In test [13], this compound returned an MIC of 0.39 µg/disc.
